Data as given in ChEMBL document CHEMBL1144866, “Surface descriptors for protein-ligand affinity prediction” (J Med Chem, 2003).

Test: Inhibitory activity against glycogen phosphorylase, activity expressed as -logKi

| SMILES | -Log Ki |
| --- | --- |
| CNC(=O)C1OC(CO)C(O)C(O)C1O (configuration not stated) | 3.796 |
| CC(=O)N[C@H]1O[C@H](CO)[C@@H](O)[C@H](O)[C@H]1O | 4.495 |
| NC(=O)N[C@H]1O[C@H](CO)[C@@H](O)[C@H](O)[C@H]1O | 3.854 |
| CCC(=O)N[C@H]1O[C@H](CO)[C@@H](O)[C@H](O)[C@H]1O | 4.409 |
| OCC1OC(CO)C(O)C(O)C1O (configuration not stated) | 2.824 |
| NCC(=O)N[C@H]1O[C@@H](CO)[C@@H](O)[C@H](O)[C@@H]1O | 3.432 |
| O=C(CBr)N[C@H]1O[C@@H](CO)[C@@H](O)[C@H](O)[C@@H]1O | 4.357 |
| NC(=O)C1OC(CO)C(O)C(O)C1O (configuration not stated) | 3.357 |
| O=C(CCl)N[C@H]1O[C@H](CO)[C@@H](O)[C@H](O)[C@H]1O | 4.347 |
| CS(=O)(=O)OCC1OC(CO)C(O)C(O)C1O (configuration not stated) | 2.319 |
| NCC1OC(CO)C(O)C(O)C1O (stereo in doubt; form 2) | 1.775 |
| NN1C(=O)N[C@@]2(O[C@@H](CO)[C@@H](O)[C@H](O)[C@@H]2O)C1=O | 3.836 |
| COC(=O)N[C@]1(C(N)=O)O[C@H](CO)[C@@H](O)[C@H](O)[C@H]1O | 4.796 |
| NCC1OC(CO)C(O)C(O)C1O (stereo in doubt; form 1) | 1.462 |
| CCCC(=O)N[C@H]1O[C@H](CO)[C@@H](O)[C@H](O)[C@H]1O | 4.027 |
| O=C(N[C@H]1O[C@H](CO)[C@@H](O)[C@H](O)[C@H]1O)c1ccccc1 | 4.092 |
| CC(=O)NCC(=O)N[C@H]1O[C@H](CO)[C@@H](O)[C@H](O)[C@H]1O | 3.004 |
